Measurements as given in ChEMBL document CHEMBL1148872, “Bradykinin B1 antagonists: biphenyl SAR studies in the cyclopropanecarboxamide series” (Bioorg Med Chem Lett, 2007).

Key:
[1] = target: T1, B1 bradykinin receptor (Homo sapiens, UniProt P46663); experiment: Binding affinity to human BK1 receptor
T1 sequence (P46663 whole entry): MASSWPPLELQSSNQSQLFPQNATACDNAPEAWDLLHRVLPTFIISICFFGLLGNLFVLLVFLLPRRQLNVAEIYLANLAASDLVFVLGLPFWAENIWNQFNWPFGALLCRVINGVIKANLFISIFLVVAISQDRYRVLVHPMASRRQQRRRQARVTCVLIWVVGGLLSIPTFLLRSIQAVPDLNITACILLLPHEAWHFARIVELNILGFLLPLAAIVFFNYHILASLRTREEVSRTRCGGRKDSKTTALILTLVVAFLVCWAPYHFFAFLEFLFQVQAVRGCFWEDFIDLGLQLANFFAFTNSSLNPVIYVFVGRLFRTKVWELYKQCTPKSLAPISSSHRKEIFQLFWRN

[2] = Half life in Sprague-Dawley rat at 10 mg/kg, po or 2 mg/kg, iv; details: in vivo
[3] = Half life in rhesus monkey at 3 mg/kg, po or 1 mg/kg, iv; details: in vivo
[4] = Clearance in Sprague-Dawley rat at 10 mg/kg, po or 2 mg/kg, iv; details: in vivo
[5] = Ratio of drug level in brain to plasma in african green monkey at 2 mg/kg, iv after 30 mins; details: chlorocebus aethiops
[6] = Apparent permeability of the compound; details: not told
[7] = target: T2, B1 bradykinin receptor (Homo sapiens) (UniProt P46663); experiment: Receptor occupancy efficiency at human BK1 receptor in ex vivo transgenic receptor mouse occupancy model; assay type: functional
T2 sequence (whole entry): T1 sequence (P46663 whole entry)

[8] = Partition coefficient, log P of the compound; details: octanol/water
[9] = in vivo; details: Sprague-Dawley, rat, po, 10 mg/kg
Description: Oral bioavailability in Sprague-Dawley rat at 10 mg/kg, po

[10] = in vivo; details: rhesus monkey, po, 3 mg/kg
[11] = in vivo; details: mongrel, dog, po, 3 mg/kg
[12] = Half life in mongrel dog at 3 mg/kg, po or 1 mg/kg, iv; details: in vivo

Structure (SMILES) | Ki [1] [nM] | half-life [2] [h] | Papp [6] [×10⁻⁶ cm/s] | Occ90 [7] [nM] | bioavailability [9] [%] | other results
Cc1noc(-c2ccc(Cl)cc2-c2ccc([C@@H](C)NC(=O)C3(NC(=O)C(F)(F)F)CC3)c(F)c2)n1 | 7.6 | – | – | – | – | –
C[C@@H](NC(=O)C1(NC(=O)C(F)(F)F)CC1)c1ccc(-c2cc(Cl)ccc2-c2nnn(C)n2)cc1F | 1.45 | – | – | – | – | –
COC(=O)c1c(Cl)cc(Cl)cc1-c1cnc([C@@H](C)NC(=O)C2(NC(=O)C(F)(F)F)CC2)c(F)c1 | 2.6 | 1.3 | 29 | 210 | 19 | half-life [3]: 2.5 h; clearance [4]: 16.6 mL/min/kg; Kp at 0.5 h ([5]; brain and plasma): 0.8; logP [8]: 3.3; bioavailability [10]: 12%; bioavailability [11]: 66%; half-life [12]: 6.6 h
CCOC(=O)c1c(Cl)cc(Cl)cc1-c1ccc([C@@H](C)NC(=O)C2(NC(=O)C(F)(F)F)CC2)c(F)c1 | 1.85 | – | – | – | – | –
COC(=O)c1c(Cl)cccc1-c1ccc([C@@H](C)NC(=O)C2(NC(=O)C(F)(F)F)CC2)c(F)c1 [MK0686] | – | – | – | 520 | – | Kp at 0.5 h ([5]; brain and plasma): 0.4; logP [8]: > 3.6
COC(=O)c1c(Cl)cccc1-c1cnc([C@@H](C)NC(=O)C2(NC(=O)C(F)(F)F)CC2)c(F)c1 | 0.77 | – | – | 350 | – | –
CCOC(=O)c1c(Cl)cccc1-c1cnc([C@@H](C)NC(=O)C2(NC(=O)C(F)(F)F)CC2)c(F)c1 | 1.2 | 0.8 | 28 | 225 | 52 | half-life [3]: 1.1 h; clearance [4]: 6.8 mL/min/kg; Kp at 0.5 h ([5]; brain and plasma): 0.7; logP [8]: 3.6; bioavailability [10]: 12%; bioavailability [11]: 20%; half-life [12]: 2.3 h
Cc1nc(-c2ccc(Cl)cc2-c2ccc([C@@H](C)NC(=O)C3(NC(=O)C(F)(F)F)CC3)c(F)c2)no1 | 1.39 | – | – | – | – | –
CCOC(=O)c1c(Cl)cc(Cl)cc1-c1cnc([C@@H](C)NC(=O)C2(NC(=O)C(F)(F)F)CC2)c(F)c1 | 1.8 | – | – | – | – | –
C[C@@H](NC(=O)C1(NC(=O)C(F)(F)F)CC1)c1ccc(-c2cc(Cl)cc(Cl)c2-c2nnn(C)n2)cc1F | 1.58 | – | – | 540 | – | –
C[C@@H](NC(=O)C1(NC(=O)C(F)(F)F)CC1)c1ncc(-c2cc(Cl)cc(Cl)c2-c2nnn(C)n2)cc1F | 3.8 | – | – | – | – | –
C[C@@H](NC(=O)C1(NC(=O)C(F)(F)F)CC1)c1ccc(-c2cc(Cl)cc(F)c2-c2nnn(C)n2)cc1F | 1.1 | 3.5 | 23 | – | 64 | clearance [4]: 2.3 mL/min/kg
COC(=O)c1ccc(Cl)cc1-c1ccc([C@@H](C)NC(=O)C2(NC(=O)C(F)(F)F)CC2)c(F)c1 | 2.05 | – | – | – | – | –
COC(=O)c1c(F)cc(Cl)cc1-c1ccc([C@@H](C)NC(=O)C2(NC(=O)C(F)(F)F)CC2)c(F)c1 | 0.68 | 0.8 | 27 | – | 21 | clearance [4]: 13 mL/min/kg
COC(=O)c1cc(Cl)ccc1-c1ccc([C@@H](C)NC(=O)C2(NC(=O)C(F)(F)F)CC2)c(F)c1 | 134 | – | – | – | – | –
COC(=O)c1c(Cl)cc(Cl)cc1-c1ccc([C@@H](C)NC(=O)C2(NC(=O)C(F)(F)F)CC2)c(F)c1 | 0.46 | 4.6 | 18 | 450 | 38 | half-life [3]: 3.9 h; Kp at 0.5 h ([5]; brain): 1.1; logP [8]: > 3.8; bioavailability [10]: 20%; bioavailability [11]: 19%
Cc1nc(-c2c(Cl)cc(Cl)cc2-c2ccc([C@@H](C)NC(=O)C3(NC(=O)C(F)(F)F)CC3)c(F)c2)no1 | 2.4 | 5.6 | 23 | – | 39 | clearance [4]: 0.8 mL/min/kg
